Laboratory results published in ChEMBL document CHEMBL3091392, “Chromenylchalcones with inhibitory effects on monoamine oxidase B” (Bioorg Med Chem, 2013).

Legend:
[1] = target: T1, Amine oxidase [flavin-containing] B (Homo sapiens, UniProt P27338); assay: Inhibition of MAO-B (unknown origin)
T1 sequence (P27338 whole entry): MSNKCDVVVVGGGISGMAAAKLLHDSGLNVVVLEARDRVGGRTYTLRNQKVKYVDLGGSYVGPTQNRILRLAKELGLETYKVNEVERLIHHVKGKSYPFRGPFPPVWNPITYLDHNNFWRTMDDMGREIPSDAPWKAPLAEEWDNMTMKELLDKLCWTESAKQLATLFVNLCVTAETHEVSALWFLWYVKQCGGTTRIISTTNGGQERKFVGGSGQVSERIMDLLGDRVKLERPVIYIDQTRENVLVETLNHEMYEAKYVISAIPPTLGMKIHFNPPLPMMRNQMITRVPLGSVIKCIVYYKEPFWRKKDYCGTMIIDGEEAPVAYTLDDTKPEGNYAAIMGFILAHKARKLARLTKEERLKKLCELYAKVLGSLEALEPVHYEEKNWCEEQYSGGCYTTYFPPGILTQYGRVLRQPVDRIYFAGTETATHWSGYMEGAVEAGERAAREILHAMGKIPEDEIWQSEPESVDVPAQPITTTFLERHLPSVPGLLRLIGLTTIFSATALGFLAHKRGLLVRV

[2] = target: T1, Amine oxidase [flavin-containing] B; assay: Inhibition of MAO-B (unknown origin) using p-tyramine substrate by HPLC method
[3] = target: T1, Amine oxidase [flavin-containing] B; assay: Inhibition of human recombinant MAO-B expressed in insect cells at 10 uM by Amplex Red assay; details: read-out: INH
[4] = target: T1, Amine oxidase [flavin-containing] B; assay: Inhibition of human recombinant MAO-B expressed in insect cells by Amplex Red assay; format: cell-based

## O=c1c(Cc2ccc(Cl)cc2)coc2cc(Cl)cc(Cl)c12
[1]
  IC50: 0.437 µM

## COc1ccc2c(c1)C=C(/C=C/C(=O)c1ccccc1OC)CO2
[2]
  IC50: 13.7 µM
[3]
  inhibition at 10 µM: 91.6%
[4]
  IC50: 0.32 µM

## COc1cccc(C(=O)/C=C/C2=Cc3cc(Br)ccc3OC2)c1
[2]
  IC50: 35.9 µM

## COc1ccccc1C(=O)/C=C/C1=Cc2cc(Br)ccc2OC1
[2]
  IC50: 42.8 µM

## COc1cc(OC)cc(C(=O)/C=C/C2=Cc3cc(Br)ccc3OC2)c1
[2]
  IC50: 16.7 µM

## COc1cc(/C=C/C(=O)C2=Cc3cc(OC)ccc3OC2)cc(OC)c1
[2]
  IC50: 18.3 µM
